Consider one compound from patent US8518989B2, “Prodrugs of short-chain fatty acids and treatment methods” (Georgia Health Sciences University Research Institute, Inc., priority 2005, dated 2013).

Assay [1] has as its target T1, human SLC5A8 (Homo sapiens, UniProt Q8N695, F251V/V193I).
T1 construct: We amplified the coding region of SLC5A8 mRNA by RT-PCR using human intestinal mRNA as the template; expressed in transfected cells; host or cells: Xenopus laevis oocytes, 50 ng capped cRNA from the pGH19 construct
T1 sequence (Q8N695 1-610 V193I/F251V): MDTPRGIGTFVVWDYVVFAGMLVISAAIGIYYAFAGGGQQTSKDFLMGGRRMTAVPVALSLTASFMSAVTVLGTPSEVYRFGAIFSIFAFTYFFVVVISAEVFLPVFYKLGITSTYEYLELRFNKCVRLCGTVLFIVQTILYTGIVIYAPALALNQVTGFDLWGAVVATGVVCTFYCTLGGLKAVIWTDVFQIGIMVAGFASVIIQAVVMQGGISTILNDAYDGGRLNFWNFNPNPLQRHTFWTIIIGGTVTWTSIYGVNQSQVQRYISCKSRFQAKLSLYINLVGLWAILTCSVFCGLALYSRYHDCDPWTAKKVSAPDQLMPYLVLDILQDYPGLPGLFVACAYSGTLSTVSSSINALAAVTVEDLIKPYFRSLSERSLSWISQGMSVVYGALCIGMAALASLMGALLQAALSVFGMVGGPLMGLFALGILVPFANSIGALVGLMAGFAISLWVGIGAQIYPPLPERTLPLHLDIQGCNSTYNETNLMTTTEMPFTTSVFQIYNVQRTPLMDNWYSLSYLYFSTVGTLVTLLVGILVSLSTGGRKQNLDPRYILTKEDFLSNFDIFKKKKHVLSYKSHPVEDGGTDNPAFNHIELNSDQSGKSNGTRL
In words: Two-microelectrode voltage clamp of substrate-induced currents in SLC5A8-expressing oocytes. Format: cell-based. The procedure: (§1) The amplified human SLC5A8 cDNA was expressed heterologously in Xenopus oocytes by cRNA injection. Capped cRNA from SLC5A8 cDNA was synthesized using the mMESSAGE mMACHINE kit (Ambion Inc., Austin, Tex.). Mature oocytes (stage 1V or V) from Xenopus laevis were injected with 50 ng cRNA. Uninjected oocytes served as controls. The oocytes were used for uptake and electrophysiological studies 3-6 days after cRNA injection. Uptake of radiolabeled substrates in uninjected and cRNA-injected oocytes was determined as described previously (Fei, Y. J., et al., (1995) Biochemistry 34, 8744-8751).
(§2) Eight oocytes were used for each uptake measurement. Electrophysiological studies were performed by the two-microelectrode voltage clamp method (11. Wang, H., Fei, et al., (2000) Am. J. Physiol. 278:C1019-C1030; Inoue, K, et al. (2004) Biochem. J. 378:949-957).
Oocytes were perfused with a NaCl-containing buffer (100 mM NaCl, 2 mM KCl, 1 mM MgCl2, 1 mM CaCl2, 3 mM Hepes, 3 mM Mes, and 3 mM Tris, pH 7.5), followed by the same buffer containing different fatty acids. The membrane potential was clamped at −50 mV. The differences between the steady-state currents measured in the presence and absence of substrates were considered as the substrate-induced currents. To investigate the current-membrane potential (I—V) relationship, step changes in membrane potential were applied, each for a duration of 100 ms in 20-mV increments. The kinetic parameter K0.5 (i.e. the substrate concentration necessary for the induction of half-maxima) current) was calculated by fitting the values of the substrate-induced currents to Michaelis-Menten equation. The Na^+-activation kinetics was analyzed by measuring the substrate-specific currents in the presence of increasing concentrations of Na^+. The data were analyzed by the Hill equation to determine the Hill coefficient (h; the number of Na^+ ions involved in the activation process). The kinetic parameters were determined using the computer program Sigma Plot, version 6.0 (SPSS, Inc., Chicago, Ill.). Electrophysiological measurements of substrate-induced currents were repeated at least four times with separate oocytes. The data are presented as means±S.E. of these replicates.
The charge-to substrate transfer ratio was determined for propionate in four different oocytes as described previously (Wang, H., et al. (2000) Am. J. Physiol. 278:C1019-C1030 12. Inoue, K., Fei, Y. J., Zhuang, L., Gopal, E., Miyauchi, S., and Ganapathy, V. (2004) Biochem. J. 378:949-957). The oocytes were perfused with 25 μM propionate (unlabeled plus radiolabeled propionate), and inward currents were monitored over a period of 8-10 min. At the end of the experiment, the amount of propionate transported into the oocytes was calculated by measuring the radioactivity associated with the oocytes. The area within the curve describing the relationship between the time and inward current was integrated to calculate the charge transferred into the oocyte during incubation with propionate. The values for substrate transfer and charge transfer were used to determine the charge to substrate transfer ratio.

The test system of assay [2] is MCF7 cells transfected with SMCT1 cDNA. In words: Colony formation assay in MCF7 cells transfected with SMCT1 cDNA. Format: cell-based, human. Particulars: SMCT1-expressing MCF7 cells.
In assay [3] the target is T1, human SLC5A8. The experiment in a line: Uptake of radiolabeled short-chain fatty acids in Xenopus oocytes injected with SLC5A8 cRNA. Format: cell-based. Particulars: 1 h incubation. How it is done: as §1, §2
Uptake of short-chain fatty acids in uninjected oocytes and in oocytes injected with SLC5A8 cRNA was measured with 1 h incubation. Concentration of substrates (labeled plus unlabeled) varied in the range of 50-500 μM depending on the specific radioactivity of the substrates. Eight oocytes were used for each uptake measurement. Data represent means±SE.

For `CC(=O)O` [acetate], in assay [1] (5 mM, -50 mV), the “Relative magnitude of substrate-induced currents” value is on record as “intermediate”. For the same compound, in assay [1] (four oocytes), the “K0.5 for SLC5A8” value came out at 2.46 ± 0.89 mM. Besides, the “Effect on cell growth / apoptosis” value in assay [2] is “no effect on cell growth”. In assay [3], the “Fold increase of uptake (cRNA-injected over uninjected)” value turned out to be 1.8 fold. Moreover, the “Uptake, cRNA-injected oocytes” value in assay [3] (SLC5A8 cRNA-injected oocytes) is recorded as 0.059 ± 0.003. In addition, the “Uptake, uninjected oocytes” value in assay [3] (uninjected control oocytes) is given as 0.032 ± 0.001.
